{
  "source": "patent US20060276537A1",
  "about": "“Use of ladostigil for the treatment of multiple sclerosis” (priority 2005, published 2006)",
  "type_in_all_cases": "in vivo",
  "key": {"[1]": {"experiment": "Body weight of the EAE mice (Table 7)", "excerpt": "These differences were statistically significant (p<0.000, Manova). According to the subsequent Post Hoc comparison (LSD), all the groups were different from the control (Table 7). […] On day 14, four days after the onset of the disease, sick mice lost an average of 2 g of weight. The average mean weight of GA-blocked mice was reduced by only 0.4 g. On day 23 the control group reached the lowest weight, 14.6 g."}, "[2]": {"test_system": "relapsing remitting EAE in 129/SvEv mice", "experiment": "MOG-induced relapsing remitting EAE in 129/SvEv mice", "procedure": "This experiment is conducted to evaluate whether ladostigil tartrate is effective in alleviating EAE. EAE is induced in mice by the administration of myelin oligodendrocyte glycoprotein (MOG). Injection of MOG into 129/SvEv mice produces a relapsing remitting EAE (murine model of relapsing remitting multiple sclerosis).\nOne week before MOG immunization, 129/SvEv mice receive a sub-optimal dose of ladostigil tartrate or saline vehicle. Over a period of 1-2 months following MOG immunization, clinical scores are monitored by weighing animals on a daily basis and grading the severity of EAE. In addition to clinical evaluation, groups of mice are sacrificed at weekly intervals for routine histological examination (hematoxylin-eosin and luxol fast blue for evidence of inflammation and demyelination, respectively). Also, cellular infiltrates are examined for CD3 (T lymphocytes), CD56 (natural killer cells) and CD19 (B cell immunohistochemistry). Loss of neurons and oligodendrocytes is assessed using immunohistochemistry for NeuN and glutathione-S-transferase pi isoform, respectively. Furthermore, axonal integrity is examined using immunohistochemistry for β-amyloid precursor protein or neurofilament, and by Bielchowsky silver stains. The neuropathological assessments are focused on the optic nerve, lumbar/sacral cord and brain stem."}, "MAO-A": {"target": "T1, MAO-A (Mus musculus, UniProt Q64133)", "T1 construct": "in the brains of EAE mice; from tissue; host or cells: brain homogenate of ladostigil-treated EAE mice", "T1 sequence (Q64133 1-526)": "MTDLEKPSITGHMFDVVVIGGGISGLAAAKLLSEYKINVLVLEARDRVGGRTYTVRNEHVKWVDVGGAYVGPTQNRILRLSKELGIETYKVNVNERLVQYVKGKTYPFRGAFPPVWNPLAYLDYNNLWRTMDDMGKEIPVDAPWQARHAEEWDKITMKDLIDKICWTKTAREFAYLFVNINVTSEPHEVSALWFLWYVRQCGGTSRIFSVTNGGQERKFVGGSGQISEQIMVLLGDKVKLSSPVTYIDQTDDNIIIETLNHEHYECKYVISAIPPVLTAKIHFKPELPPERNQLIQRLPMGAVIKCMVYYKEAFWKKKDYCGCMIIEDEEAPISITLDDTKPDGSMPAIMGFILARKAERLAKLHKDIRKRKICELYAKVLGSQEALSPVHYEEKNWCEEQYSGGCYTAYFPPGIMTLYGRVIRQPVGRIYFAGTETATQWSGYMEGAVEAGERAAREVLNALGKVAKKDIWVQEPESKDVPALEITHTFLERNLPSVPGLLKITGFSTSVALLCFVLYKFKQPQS", "experiment": "MAO assay (14C 5-HT substrate) in brains of treated EAE mice", "procedure": "(§1) From the mice of Example 2, the level of MAO (MAO-A and MAO-B) inhibition was determined using ^14C-Labeled 2-phenylethylamine and 5-hydroxytryptamine as substrates.\n(§2) The MAO enzyme obtained from a homogenate of rat brain in 0.3M sucrose, which was centrifuged at 600 g for 15 minutes. The supernatant is diluted appropriately in 0.05M phosphate buffer, and pre-incubated with serial dilutions of test compounds for 20 minutes at 37° C. ^14C-Labeled substrates (2-phenylethylamine, hereinafter PEA; 5-hydroxytryptamine, hereinafter 5-HT) are then added, and the incubation continued for a further 20 minutes (PEA), or 30-45 minutes (5-HT). Substrate concentrations used are 50 μM (PEA) and 1 mM (5-HT). In the case of PEA, enzyme concentration is chosen so that not more than 10% of the substrate is metabolized during the course of the reaction. Deaminated products are extracted into toluene-ethyl acetate (1:1 v/v) containing 0.6% (w/v) 2,5-diphenyloxazole (ppo) prior to determination by liquid scintillation counting. Radioactivity in the eluate indicates the production of neutral and acidic metabolites formed as a result of MAO activity. Activity of MAO in the sample is expressed as a percentage of control activity in the absence of inhibitors after subtraction of appropriate blank values. The activity determined using PEA as substrate is referred to as MAO-B, and that determined using 5-HT as MAO-A. Concentrations of inhibitor producing 50% inhibition of substrate metabolism (IC50) are calculated from the inhibition curves."}, "MAO-B": {"target": "T2, MAO-B (Mus musculus, UniProt Q8BW75)", "T2 construct": "in the brains of EAE mice; from tissue; host or cells: brain homogenate of ladostigil-treated EAE mice", "T2 sequence (Q8BW75 1-520)": "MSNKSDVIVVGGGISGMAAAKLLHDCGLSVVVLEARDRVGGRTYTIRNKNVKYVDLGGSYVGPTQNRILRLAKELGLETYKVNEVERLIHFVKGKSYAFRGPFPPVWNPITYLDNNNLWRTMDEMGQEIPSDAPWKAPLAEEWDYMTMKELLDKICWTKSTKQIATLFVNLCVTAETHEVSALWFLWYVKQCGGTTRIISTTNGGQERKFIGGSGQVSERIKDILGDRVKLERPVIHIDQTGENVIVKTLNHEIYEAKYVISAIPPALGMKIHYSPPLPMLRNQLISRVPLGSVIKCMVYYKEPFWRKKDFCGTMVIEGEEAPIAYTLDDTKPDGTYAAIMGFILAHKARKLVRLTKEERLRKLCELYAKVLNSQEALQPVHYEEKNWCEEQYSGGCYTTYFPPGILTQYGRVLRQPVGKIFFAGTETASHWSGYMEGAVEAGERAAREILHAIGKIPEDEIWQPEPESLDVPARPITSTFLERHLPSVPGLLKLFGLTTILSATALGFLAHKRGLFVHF", "experiment": "MAO assay (14C PEA substrate) in brains of treated EAE mice", "procedure": "as §1, §2"}, "[3]": {"conditions": "sub-optimal dose from one week before MOG immunization, vs saline vehicle"}, "[4]": {"conditions": "mouse, brain of EAE mice, 10.2 mg/kg"}, "[5]": {"conditions": "mouse, brain of EAE mice, 25.5 mg/kg"}, "[6]": {"conditions": "mouse, brain of EAE mice, 51 mg/kg"}, "[7]": {"conditions": "mouse, brain of EAE mice, 70.1 mg/kg"}},
  "data": [
    {"compound": "C#CCN[C@@H]1CCc2ccc(OC(=O)N(C)CC)cc21", "note": "[Ladostigil, R(+)-6-(N-methyl,N-ethyl-carbamoyloxy)-N′-propargyl-1-aminoindan]", "values": [
      {"measurement": "Weight of EAE mice", "setting": "[1]; day 2 after induction, ladostigil salt 10.2 mg/kg gavage daily", "result": "18.1 ± 1.0", "unit": "g"},
      {"measurement": "Weight of EAE mice", "setting": "[1]; day 2 after induction, ladostigil salt 25.5 mg/kg gavage daily", "result": "18.2 ± 0.8", "unit": "g"},
      {"measurement": "Weight of EAE mice", "setting": "[1]; day 2 after induction, ladostigil salt 51 mg/kg gavage daily", "result": "18.2 ± 0.9", "unit": "g"},
      {"measurement": "Weight of EAE mice", "setting": "[1]; day 2 after induction, ladostigil salt 70.1 mg/kg gavage daily", "result": "18.5 ± 0.8", "unit": "g"},
      {"measurement": "Weight of EAE mice", "setting": "[1]; day 14 after induction, ladostigil salt 10.2 mg/kg gavage daily", "result": "16.0 ± 1.7", "unit": "g"},
      {"measurement": "Weight of EAE mice", "setting": "[1]; day 14 after induction, ladostigil salt 25.5 mg/kg gavage daily", "result": "15.9 ± 1.7", "unit": "g"},
      {"measurement": "Weight of EAE mice", "setting": "[1]; day 14 after induction, ladostigil salt 51 mg/kg gavage daily", "result": "15.6 ± 1.6", "unit": "g"},
      {"measurement": "Weight of EAE mice", "setting": "[1]; day 14 after induction, ladostigil salt 70.1 mg/kg gavage daily", "result": "15.9 ± 1.4", "unit": "g"},
      {"measurement": "Weight of EAE mice", "setting": "[1]; day 30 after induction, ladostigil salt 10.2 mg/kg gavage daily", "result": "17.6 ± 2.5", "unit": "g"},
      {"measurement": "Weight of EAE mice", "setting": "[1]; day 30 after induction, ladostigil salt 25.5 mg/kg gavage daily", "result": "17.8 ± 1.4", "unit": "g"},
      {"measurement": "Weight of EAE mice", "setting": "[1]; day 42 after induction, ladostigil salt 10.2 mg/kg gavage daily", "result": "17.5 ± 2.9", "unit": "g"},
      {"measurement": "Weight of EAE mice", "setting": "[1]; day 42 after induction, ladostigil salt 25.5 mg/kg gavage daily", "result": "17.6 ± 1.7", "unit": "g"},
      {"measurement": "Weight compared with positive control", "setting": "[1]; highest dose of ladostigil, day 30", "result": "comparable with the positive control"},
      {"measurement": "incidence and severity of EAE", "setting": "[2]; compared to control", "result": "decreases both the incidence and severity of EAE"},
      {"measurement": "area under the curve (clinical score)", "setting": "[2]; [3]", "result": "smaller area under the curve"},
      {"measurement": "clinical score", "setting": "[2]; [3]", "result": "lower clinical score"},
      {"measurement": "MAO-A inhibition", "setting": "MAO-A; 51 and 70.1 mg/kg/day, brain", "result": "55-60%"},
      {"measurement": "MAO-A activity dpm", "setting": "MAO-A; brain of EAE mice, 10.2 mg/kg", "result": "3702 +/− 119 dpm"},
      {"measurement": "MAO-A activity dpm", "setting": "MAO-A; brain of EAE mice, 25.5 mg/kg", "result": "2672 +/− 128 dpm"},
      {"measurement": "MAO-A activity dpm", "setting": "MAO-A; brain of EAE mice, 51 mg/kg", "result": "1822 +/− 115 dpm"},
      {"measurement": "MAO-A activity dpm", "setting": "MAO-A; brain of EAE mice, 70.1 mg/kg", "result": "1621 +/− 158 dpm"},
      {"measurement": "inhibition at 10.2 mg/kg", "setting": "MAO-A; [4]", "result": 9, "unit": "%"},
      {"measurement": "inhibition at 25.5 mg/kg", "setting": "MAO-A; [5]", "result": 34, "unit": "%"},
      {"measurement": "inhibition at 51 mg/kg", "setting": "MAO-A; [6]", "result": 55, "unit": "%"},
      {"measurement": "inhibition at 70.1 mg/kg", "setting": "MAO-A; [7]", "result": 60, "unit": "%"},
      {"measurement": "inhibition of MAO-B", "setting": "MAO-B; 51 and 70.1 mg/kg/day, brain", "result": "81-89%"},
      {"measurement": "MAO-B activity dpm", "setting": "MAO-B; brain of EAE mice, 10.2 mg/kg", "result": "8784 +/− 1047 dpm"},
      {"measurement": "MAO-B activity dpm", "setting": "MAO-B; brain of EAE mice, 25.5 mg/kg", "result": "4258 +/− 467 dpm"},
      {"measurement": "MAO-B activity dpm", "setting": "MAO-B; brain of EAE mice, 51 mg/kg", "result": "2424 +/− 1122 dpm"},
      {"measurement": "MAO-B activity dpm", "setting": "MAO-B; brain of EAE mice, 70.1 mg/kg", "result": "1382 +/− 250 dpm"},
      {"measurement": "inhibition at 10.2 mg/kg", "setting": "MAO-B; [4]", "result": 32, "unit": "%"},
      {"measurement": "inhibition at 25.5 mg/kg", "setting": "MAO-B; [5]", "result": 67, "unit": "%"},
      {"measurement": "inhibition at 51 mg/kg", "setting": "MAO-B; [6]", "result": 81, "unit": "%"},
      {"measurement": "inhibition at 70.1 mg/kg", "setting": "MAO-B; [7]", "result": 89, "unit": "%"}
    ]}
  ]
}
